Results: patent US3968251A, “Arylacetylene compounds as antithrombotic agents” (Eli Lilly and Company, priority 1975, dated 1976)
Like-named read-outs stand apart in the source and are kept apart here.

Test system: collagen-induced platelet aggregation
Test: collagen-induced platelet aggregation after oral dosing (method of Herrmann, et al., 139, 548 (1972))
Type: in vivo, Guinea pig
Conditions: for inhibition at 25 mg/kg: Cavia porcellus, Platelet, po, oral 25 mg/kg, guinea pig, read-out: Percent Inhibition of Collagen-Induced Platelet Aggregation
Description: Exp. Biol. Med., 139, 548 (1972).
The effect of (2'-fluoro-4-biphenyl)acetylene on collagen-induced platelet aggregation was tested by the method of Hermann, et al., Proc. Soc. Exp. Biol. Med., 139, 548 (1972). Guinea pigs weighing 300-400 g, were used. The compound was administered by oral dosing. At time intervals after dosing, blood samples were obtained for assessing platelet function. The collagen used to induce platelet aggregation was prepared from a stock solution obtained by solubilizing Sigma bovine Achilles Tendon with acetic acid. […] Each day 0.4 ml of 1 M aqueous hydroxide was added to a 1.0-ml aliquot of the stock solution, followed by further dilution with saline to yield the appropriate dilutions for use.

C#Cc1ccc(-c2ccccc2F)cc1 [(2'-fluoro-4-biphenyl)acetylene]
duration of activity (in words) (20 hours after oral dosing): activity still was observed 20 hours after dosing, indicating a long duration of activity
inhibition at 25 mg/kg (1.5 h, 90 min. after dosing, collagen dilution 1:4): 13%
inhibition at 25 mg/kg (1.5 h, 90 min. after dosing, collagen dilution 1:16, significant at P=0.05): 35%
inhibition at 25 mg/kg (1.5 h, 90 min. after dosing, collagen dilution 1:32, significant at P=0.01): 81%
inhibition at 25 mg/kg (3 h, 3 hrs. after dosing, collagen dilution 1:4, significant at P=0.01): 44%
inhibition at 25 mg/kg (3 h, 3 hrs. after dosing, collagen dilution 1:16, significant at P=0.01): 69%
inhibition at 25 mg/kg (3 h, 3 hrs. after dosing, collagen dilution 1:32, significant at P=0.01): 86%
inhibition at 25 mg/kg (6 h, 6 hrs. after dosing, collagen dilution 1:4): 16%
inhibition at 25 mg/kg (6 h, 6 hrs. after dosing, collagen dilution 1:16, significant at P=0.05): 42%
inhibition at 25 mg/kg (6 h, 6 hrs. after dosing, collagen dilution 1:32, significant at P=0.01): 49%
inhibition at 25 mg/kg (20 h, 20 hrs. after dosing, collagen dilution 1:4): 18%
inhibition at 25 mg/kg (20 h, 20 hrs. after dosing, collagen dilution 1:16, significant at P=0.01): 62%
inhibition at 25 mg/kg (20 h, 20 hrs. after dosing, collagen dilution 1:32, significant at P=0.01): 95%
inhibition of collagen-induced platelet aggregation (in words) (after oral dosing): active inhibitor of collagen-induced platelet aggregation
inhibition at highest collagen concentration (in words) (highest collagen concentration, after oral dosing): inhibited only at three hours after dosing
inhibition of weakest collagen challenge (in words) (weakest collagen challenge, after oral dosing): markedly inhibited at all time intervals after oral dosing
